Source: patent US9521846B2, “Template-fixed peptidomimetics with antimicrobial activity” (priority 2006, dated 2016)
≈ marks a conversion by molar mass, not a printed value. Non-standard residues stand in square brackets, D forms with d. Residues, ends and D or L forms follow the SMILES beside them. Dab = NCC[C@H](N)C(=O)O

Assays:
[1] = test system: human red blood cells (hRBC); test: Hemolysis; format: cell-based; conditions: 100
HELA cells (Acc57) = test: Cytotoxicity assay, MTT reduction (LC 50, GI 50); format: cell-based
Outline: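 HeLa cells seeded at 7.0×10^3 cells/well, grown 24 h, then exposed to peptides at 12.5, 25 and 50 μM in triplicate for 48 h at 37 °C; MTT (0.5 mg/ml, 2 h), A595 read. Percent growth was taken relative to time-zero plates; LC50 and GI50 were interpolated by linear trend at −50% and 50% growth.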

P. aeruginosa ATCC 27853 = format: cell-based, Pseudomonas aeruginosa; conditions: ATCC 27853
Outline: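 Peptide activity was measured by a modified NCCLS broth microdilution method in Mueller-Hinton broth with 0.02% BSA. An inoculum adjusted against a 0.5 McFarland standard to about 10^6 CFU/ml was mixed 1:1 with two-fold serial peptide dilutions.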

[2] = Plasma stability, rat plasma; format: in vitro ADME
[3] = Plasma stability, human plasma; format: in vitro ADME

For `CC[C@H](C)[C@@H]1NC(=O)[C@H](Cc2c[nH]c3ccccc23)NC(=O)[C@H]([C@@H](C)O)NC(=O)[C@@H]2CCCN2C(=O)[C@H]2CCCN2C(=O)[C@H](CCN)NC(=O)[C@H](C)NC(=O)[C@H](CCN)NC(=O)[C@H](CCN)NC(=O)[C@H](Cc2c[nH]c3ccccc23)NC(=O)[C@H](CCN)NC(=O)[C@H](CCN)NC(=O)[C@H](CCCCN)NC(=O)[C@H](CCN)NC1=O` [Example 1] (cyclo(TWI[Dab]K[Dab][Dab]W[Dab][Dab]A[Dab][dP]P)), the “Hemolysis at 100 μg/ml” value [1] was 0.5%, the Cytotoxicity GI50 Hela cells (HELA cells (Acc57)) was 30 µM and the “MIC P. aeruginosa ATCC 27853” value (P. aeruginosa ATCC 27853) was 0.03 µg/mL (≈ 0.019 µM). The “Stability rat Plasma t1/2” value [2] was 5 h and the “Stability human Plasma t1/2” value [3] was 5 h.
